Assay results reported in EP0445948A2, “Prostaglandins for inhibiting cartilage damage” (G.D. Searle & Co., priority 1990, dated 1991).

Legend:
Format in all cases: cell-based
[1] = test system: human articular cartilage; test: Effect of misoprostol on IL1-induced inhibition of GAG synthesis (35SO4 incorporation after CPC precipitation); details: for 35SO4 uptake into GAG: 4 days, (SEM)
Protocol: The effect of misoprostol on the action of IL1 on human articular cartilage. This experiment was undertaken to determine the action of misoprostol on IL1 action on cartilage. A total of 160 replicates were performed. The study investigated the inhibition of synthesis of GAG by human articular cartilage over the IL1 concentration range 0.01 - 1 ng/ml. Misoprostol was investigated in the range of 0.1 to 100 ng/ml.
Cartilage from a person was used in this experiment. The experimental period was kept to 4 days with the medium being changed every 24 hours. The tissue was pulsed at 4 days with 5 µCi/ml ³⁵SO₄ in the conventional manner and its incorporation in GAG measured after CPC precipitation.

articular cartilage = test: Pig articular cartilage organ culture: incorporation of 3H-leucine into protein (index of cell viability); details: 0IL1 + Miso. 200ng/ml; (SEM)
Protocol: (§1) A standard organ culture method was followed. Pieces of articular cartilage (4x1x1 mm) are cultured in DMEM and 5% fetal calf serum in an atmosphere of 5% CO₂ at 30°C. The culture medium was renewed every two days in an attempt to maintain the level of the compound undergoing evaluation. Integrity of the cartilage was determined by the retention of GAG using methylene blue dye technique, results were expressed as percentage remaining in the tissue at the end of the experiment. The synthetic activity of the chondrocytes was measured by the incorporation of^ 35SO₄ into GAG. In some of the evaluations incorporation of 3H-leucine into protein was measured as an index of cell viability.
(§2) Human recombinant IL1 alpha at a concentration of 1 ng/ml (nanograms/milliliter). At this concentration it was responsible for 68% loss in GAG content over the 8 day period whereas the control with either misoprostol vehicle or misoprostol at 200 ng/ml only lost between 4 and 7%. The cartilage was incubated in the presence of IL1 and misoprostol at 50, 100 and 200 ng/ml. […] At 100 ng/ml the GAG loss is reduced to 34 percent.

IL1-treated cartilage [2] = test: Pig articular cartilage organ culture: retention of GAG (methylene blue dye technique)
Protocol: as §1, §2

IL1-treated cartilage [3] = test: Pig articular cartilage organ culture: incorporation of 35SO4 into GAG (synthetic activity of chondrocytes); details: (SEM)
Protocol: as §1, §2

CCCCC(C)(O)C/C=C/[C@H]1[C@H](O)CC(=O)[C@@H]1CCCCCCC(=O)OC (mixture of isomers) [misoprostol, (+/-) methyl 11α,16-dihydroxy-16-methyl-9-oxoprost-13E-en-1-oate]
protection against IL1-induced inhibition of GAG synthesis ([1]; 0.01 ng/ml IL1 (50% inhibition level), misoprostol at 10 ng/ml and at 100 ng/ml): significant protection | protection against the action of 0.01 ng/ml hrIL1α ([1]; 0.01 ng/ml hrIL1α, misoprostol 100 ng/ml): complete protection | protection against IL1-induced inhibition of GAG synthesis ([1]; 0.1 ng/ml IL1, misoprostol 100 ng/ml): modest protective activity | protection against IL1-induced inhibition of GAG synthesis ([1]; 0.1 ng/ml IL1, misoprostol below 100 ng/ml): ineffective | 35SO4 uptake into GAG ([1]; IL1 conc. 0.01 ng/ml, Misoprostol 0.1 ng/ml): 3086 (306) cpm/mg | 35SO4 uptake into GAG ([1]; IL1 conc. 0.01 ng/ml, Misoprostol 1.0 ng/ml): 2919 (244) cpm/mg | 35SO4 uptake into GAG ([1]; IL1 conc. 0.1 ng/ml, Misoprostol 0.1 ng/ml): 1113 (119) cpm/mg | 35SO4 uptake into GAG ([1]; IL1 conc. 0.1 ng/ml, Misoprostol 1.0 ng/ml): 1062 (71) cpm/mg | 35SO4 uptake into GAG ([1]; IL1 conc. 0.1 ng/ml, Misoprostol 10.0 ng/ml): 1102 (165) cpm/mg | 35SO4 uptake into GAG ([1]; IL1 conc. 1.0 ng/ml, Misoprostol 0.1 ng/ml): 183 (23) cpm/mg | 35SO4 uptake into GAG ([1]; IL1 conc. 1.0 ng/ml, Misoprostol 1.0 ng/ml): 171 (14) cpm/mg | 35SO4 uptake into GAG ([1]; IL1 conc. 1.0 ng/ml, Misoprostol 10.0 ng/ml): 219 (28) cpm/mg | 35SO4 uptake into GAG ([1]; IL1 conc. 1.0 ng/ml, Misoprostol 100.0 ng/ml): 193 (26) cpm/mg | Uptake of 3H Leucine (articular cartilage): 70.9 (4.8) cpm/mg | % Retention of GAG in tissue (IL1-treated cartilage [2]; 0IL1 + Miso. 200ng/ml, 8 day culture, (SEM)): 95.6 (1.9) % | GAG loss (IL1-treated cartilage [2]; IL1 1 ng/ml + misoprostol 100 ng/ml, 8 days): 34% | inhibition of the IL1 effect (GAG loss) (IL1-treated cartilage [2]; IL1 + misoprostol at 50, 100 and 200 ng/ml): highly significant inhibition | direct effect on intact cartilage (IL1-treated cartilage [2]; misoprostol without IL1): no direct affect | Uptake of 35 SO4 into GAG (IL1-treated cartilage [3]; 0IL1 + Miso. 200ng/ml): 29.6 (1.2) cpm/mg x 10^3 | Uptake of 35 SO4 into GAG (IL1-treated cartilage [3]; IL1 + Miso. 200ng/ml): 6.3 (0.8) cpm/mg x 10^3
